The record followed here is patent publication US8269000B2, “Substituted pyrimidine and triazine compounds” (Gruenenthal GmbH, priority 2008, dated 2012).

This experiment has as its target T1, rat B1R (Rattus norvegicus, UniProt P97583).
T1 construct: expressed in transfected cells; host or cells: CHO K1 cells
T1 sequence (P97583 1-337): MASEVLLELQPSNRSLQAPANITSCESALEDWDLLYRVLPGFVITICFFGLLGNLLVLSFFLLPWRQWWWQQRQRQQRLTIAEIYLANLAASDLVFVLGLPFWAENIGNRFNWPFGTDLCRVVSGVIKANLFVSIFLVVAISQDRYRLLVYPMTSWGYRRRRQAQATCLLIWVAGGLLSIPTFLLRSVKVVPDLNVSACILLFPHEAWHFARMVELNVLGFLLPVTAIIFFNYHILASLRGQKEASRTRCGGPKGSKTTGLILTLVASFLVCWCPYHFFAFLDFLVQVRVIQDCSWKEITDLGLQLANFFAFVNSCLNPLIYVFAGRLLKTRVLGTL
In words: FLIPR Ca2+ functional study on bradykinin receptor 1 (rB1R CHO K1 cells). Format: cell-based. Conditions: for inhibition at 10 µM: CHO-K1, % inhibition rat B1R at 10 μM, read-out: % inh. (rat B1R) 10 μM; for % inh. (rat B1R) 10 μM: % inhibition rat B1R at 10 μM. An outline of the steps:
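CHO K1 cells stably expressing human or rat B1R were loaded with Fluo-4 and read on FLIPR (ex 488/em 540 nm, peak counts). Test compound (10 μM, or a concentration range for IC50) was added first for % activation versus control agonist; after 10-20 min, EC80 Lys-Des-Arg9-bradykinin (human) or Des-Arg9-bradykinin (rat) was added, giving % inhibition of maximum. n=2-3, N≥2.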

Take `COc1cc(C)c(S(=O)(=O)N2CCCCC2COc2nccc(N3CCC(c4nc(-c5ccncc5)no4)CC3)n2)c(C)c1` (centres unmarked) [G_CC-103, 5-[1-[2-[[1-[(4-methoxy-2,6-dimethyl-phenyl)sulfonyl]-piperidin-2-yl]-methoxy]-pyrimidin-4-yl]-piperidin-4-yl]-3-pyridin-4-yl-[1,2,4]oxadiazole]: the inhibition at 10 µM came out at 93%.
The same measure, in the same setting: the figure for `COc1cc(C)c(S(=O)(=O)N2c3ccccc3C[C@H]2COc2ccnc(N3CCN(c4ccncc4)CC3)n2)c(C)c1` [H_CC-019, (2S)-1-(4-methoxy-2,6-dimethylphenyl)sulfonyl-2-[[2-[4-(4-pyridyl)-1-piperazinyl]-4-pyrimidinyl]oxymethyl]indoline] is 98%; for `COc1cc(C)c(S(=O)(=O)N(C)CCOc2ccnc(N(C)CCN3CCC(c4ccccc4)(N(C)C)CC3)n2)c(C)c1` [H_CC-067, N-[2-[2-[2-(4-dimethylamino-4-phenyl-piperidin-1-yl)-ethyl-methyl-amino]-pyrimidin-4-yl]oxy-ethyl]-4-methoxy-N,2,6-trimethyl-benzenesulfonic acid amide] it is 59%.
On the same count and under the same terms, next, `COc1cc(C)c(S(=O)(=O)N2CCC[C@H]2COc2ccnc(N(C)CCN3CCC(Oc4ccncc4)CC3)n2)c(C)c1` [H_CC-051, [4-[[(2S)-1-[(4-methoxy-2,6-dimethyl-phenyl)sulfonyl]-pyrrolidin-2-yl]-methoxy]-pyrimidin-2-yl]-methyl-[2-(4-pyridin-4-yloxy-piperidin-1-yl)-ethyl]amine]: 99%.
Consider `COc1cc(C)c(S(=O)(=O)N(C)C(COc2nccc(N3CCC(OCCN4CCCC4)(c4cccnc4)CC3)n2)c2ccccc2)c(C)c1` (centres unmarked) [G_CC-062, 4-methoxy-N,2,6-trimethyl-N-[1-phenyl-2-[[4-[4-(3-pyridyl)-4-(2-1-pyrrolidinylethoxy)-1-piperidinyl]-2-pyrimidinyl]oxy]ethyl]benzenesulfonamide], for which the inhibition at 10 µM worked out at 78%.
Same read-out and setting: the figure for `COc1cc(C)c(S(=O)(=O)N2CC(Oc3nccc(N(C)CCCN4CCC(c5ccccc5)(N(C)C)CC4)n3)C2)c(C)c1` [G_CC-126, 3-(4-dimethylamino-4-phenyl-piperidin-1-yl)-propyl-[2-[1-[(4-methoxy-2,6-dimethyl-phenyl)sulfonyl]-azetidin-3-yl]oxy-pyrimidin-4-yl]-methyl-amine] is 77%; for `COc1cc(C)c(S(=O)(=O)N(C)CCOc2nccc(N3CCC4(CCN(Cc5ccccc5)C4=O)CC3)n2)c(C)c1` [G_CC-046, N-[2-[[4-(3-benzyl-4-oxo-3,8-diazaspiro[4.5]decan-8-yl)-2-pyrimidinyl]oxy]ethyl]-4-methoxy-N,2,6-trimethylbenzenesulfonamide] it is 96%; for `COc1cc(C)c(S(=O)(=O)N2CCCCC2COc2nccc(N3CCN(C)CC3)n2)c(C)c1` (centres unmarked) [G_CC-009, 2-[[1-(4-methoxy-2,6-dimethylphenyl)sulfonyl-2-piperidinyl]methoxy]-4-(4-methyl-1-piperazinyl)pyrimidine] it is 63%.
Turning to `COc1cc(C)c(S(=O)(=O)N2CCC[C@H]2COc2ccnc(N3CCC(OCCN4CCCC4)(c4cccnc4)CC3)n2)c(C)c1` [H_CC-040, 4-[[(2S)-1-(4-methoxy-2,6-dimethylphenyl)sulfonyl-2-pyrrolidinyl]methoxy]-2-[4-(3-pyridyl)-4-(2-1-pyrrolidinylethoxy)-1-piperidinyl]pyrimidine], the inhibition at 10 µM was 51%.
The same measure, in the same setting: the figure for `COc1cc(C)c(S(=O)(=O)N2c3ccccc3C[C@H]2COc2ccnc(N3CCC(CCN4CCCCC4)CC3)n2)c(C)c1` [H_CC-028, (2S)-1-(4-methoxy-2,6-dimethylphenyl)sulfonyl-2-[[2-[4-[2-(1-piperidyl)ethyl]-1-piperidinyl]-4-pyrimidinyl]oxymethyl]indoline] is 83%.
“4-[[1-[(4-methoxy-2,6-dimethyl-phenyl)sulfonyl]-piperidin-2-yl]-methoxy]-2-(4-pyrazin-2-yloxy-piperidin-1-yl)-pyrimidine [H_CC-080]”: the “% inh. (rat B1R) 10 μM” value worked out at 59%.
Same read-out and setting: the figure for `COc1cc(C)c(S(=O)(=O)N2CCCCC2COc2nccc(N3CCC(c4cccs4)(N(C)C)CC3)n2)c(C)c1` (centres unmarked) [G_CC-070, [1-[2-[[1-[(4-methoxy-2,6-dimethyl-phenyl)sulfonyl]-piperidin-2-yl]-methoxy]-pyrimidin-4-yl]-4-thiophen-2-yl-pipendin-4-yl]-dimethyl-amine] is 95%.
As to `COc1cc(C)c(S(=O)(=O)N2CCC[C@H]2COc2ccnc(N3CCC(c4ccccc4)(N(C)C)CC3)n2)c(C)c1` [H_CC-085, [1-[4-[[(2S)-1-[(4-methoxy-2,6-dimethyl-phenyl)sulfonyl]-pyrrolidin-2-yl]-methoxy]-pyrimidin-2-yl]-4-phenyl-piperidin-4-yl]-dimethyl-amine], the inhibition at 10 µM worked out at 70%.
`COc1cc(C)c(S(=O)(=O)N2CCC[C@@H]2COc2ccnc(N3CCCN(Cc4ccccn4)CC3)n2)c(C)c1` [H_CC-043, 1-[4-[[(2R)-1-[(4-methoxy-2,6-dimethyl-phenyl)sulfonyl]-pyrrolidin-2-yl]-methoxy]-pyrimidin-2-yl]-4-(pyridin-2-yl-methyl)-[1,4]diazepam]: the “% inh. (rat B1R) 10 μM” value was determined as 80%.
Regarding `COc1cc(C)c(S(=O)(=O)N(C)C(COc2ccnc(N3CCN(c4ccncc4)CC3)n2)c2ccccc2)c(C)c1` (centres unmarked) [H_CC-036, 4-methoxy-N,2,6-trimethyl-N-[1-phenyl-2-[[2-[4-(4-pyridyl)-1-piperazinyl]-4-pyrimidinyl]oxy]ethyl]benzenesulfonamide], the inhibition at 10 µM is 71%.
With `COc1cc(C)c(S(=O)(=O)N2CCCCC2COc2ccnc(N3CCC(CCN4CCCC4)CC3)n2)c(C)c1` (centres unmarked) [H_CC-002, 4-[[1-(4-methoxy-2,6-dimethylphenyl)sulfonyl-2-piperidinyl]methoxy]-2-[4-(2-1-pyrrolidinylethyl)-1-piperidinyl]pyrimidine], the inhibition at 10 µM was 77%.
For `COc1cc(C)c(S(=O)(=O)N2CCC[C@H]2COc2ccnc(N3CCC(c4nc(-c5ccncc5)no4)CC3)n2)c(C)c1` [H_CC-048], the “% inh. (rat B1R) 10 μM” value amounted to 63%.
For `COc1cc(C)c(S(=O)(=O)N2c3ccccc3C[C@H]2COc2nccc(N3CCC(c4cccs4)(N(C)C)CC3)n2)c(C)c1` [G_CC-125, [1-[2-[[(2S)-1-[(4-methoxy-2,6-dimethyl-phenyl)sulfonyl]-2,3-dihydro-1H-indol-2-yl]-methoxy]-pyrimidin-4-yl]-4-thiophen-2-yl-piperidin-4-yl]-dimethyl-amine], the inhibition at 10 µM is 58%.
The same measure, in the same setting: the figure for `COc1cc(C)c(S(=O)(=O)N2c3ccccc3C[C@H]2COc2nccc(N(C)CCN3CCC(c4ccccc4)(N4CCCC4)CC3)n2)c(C)c1` [G_CC-096, [2-[[(2S)-1-[(4-methoxy-2,6-dimethyl-phenyl)sulfonyl]-2,3-dihydro-1H-indol-2-yl]-methoxy]-pyrimidin-4-yl]-methyl-[2-(4-phenyl-4-pyrrolidin-1-yl-piperidin-1-yl)-ethyl]-amine] is 101%.
As for `COc1cc(C)c(S(=O)(=O)N2CCCCC2COc2ccnc(N3CCC(OCCN4CCCC4)(c4cccnc4)CC3)n2)c(C)c1` (centres unmarked) [H_CC-035, 4-[[1-(4-methoxy-2,6-dimethylphenyl)sulfonyl-2-piperidinyl]methoxy]-2-[4-(3-pyridyl)-4-(2-1-pyrrolidinylethoxy)-1-piperidinyl]pyrimidine], the inhibition at 10 µM stood at 86%.
